Reference: US20030092616A1, “STAT6 activation gene” (priority 2001, published 2003)

B1: 177 (nucleic acid, listed as Homo sapiens)
chain: AAACGAAACGGTAACCAGCCCTGGGAAGCCCGCAAGAGGCCTCAGCGGTGGCCGTCCGAGCGCCGAGAGGTGAGGGTGCCCCCGCCTCACCTGCAGAGGGGCCGTTCCGGGCTCGAACCCGGCACCTTCCGGAAAATGGCGGCTGCCAGGCCCAGCCTGGGCCGAGTCCTCCCAGGATCCTCTGTCCTGTTCCTGTGTGACATGCAGGAGAAGTTCCGCCACAACATCGCCTACTTCCCACAGATCGTCTCAGTGGCTGCCCGCATGCTCAAGGTGGCCCGGCTGCTTGAGGTGCCAGTCATGCTGACGGAGCAGTACCCACAAGGCCTGGGCCCCACGGTGCCCGAGCTGGGGACTGAGGGCCTTCGGCCGCTGGCCAAGACCTGCTTCAGCATGGTGCCTGCCCTGCAGCAGGAGCTGGACAGTCGGCCCCAGCTGTGCTCTGTGCTGCTCTGTGGCATTGAGGCACAGGCCTGCATCTTGAACACGACCCTGGACCTCCTAGACCGGGGGCTGCAGGTCCATGTGGTGGTGGACGCCTGCTCCTCACGCAGCCAGGTGGACCGGCTGGTGGCTCTGGCCCGCATGAGACAGAGTGGTGCCTTCCTCTCCACCAGCGAAGGGCTCATTCTGCAGCTTGTGGGCGATGCCGTCCACCCCCAGTTCAAGGAGATCCAGAAACTCATCAAGGAGCCCGCCCCAGACAGCGGACTGCTGGGCCTCTTCCAAGGCCAGCTGCTCCCGGAAATGCAAATGAGACTCCTGGAAACTGGGTGGGAATTGGCTGAGCCGAGATGGAGGCGGGGCTCGGCCCCGGGCCACTTCACGGGGCGGGAAGGGGAGGGGAAGAAGAGTCTCAGACTGTGGGACACGGACTCGCAGAATAAACATATATGTGGCTGTG
modifications: CDS (136)..(903)
B2: 455 (nucleic acid, listed as Homo sapiens)
chain: ATGGTGTCCTGGATGATCTCCAGAGCCGTGGTGCTGGTGTTTGGAATGCTTTATCCTGCATATTATTCATACAAAGCTGTGAAAACAAAAAACGTGAAGGAATATGTTCGATGGATGATGTACTGGATTGTTTTTGCTCTCTATACTGTGATTGAAACAGTAGCCGATCAAACAGTTGCTTGGTTTCCCCTGTACTATGAGCTGAAGATTGCTTTTGTCATATGGCTGCTTTCTCCCTATACCAAAGGAGCAAGTTTAATATATAGAAAATTCCTTCATCCACTTCTTTCTTCAAAGGAAAGGGAGATTGATGATTATATTGTACAAGCAAAGGAACGAGGCTATGAAACCATGGTAAACTTTGGACGGCAAGGTTTAAACCTTGCAGCTACTGCTGCTGTTACTGCAGCAGTAAAGAGCCAAGGAGCAATAACTGAACGTTTAAGAAGCTTCAGTATGCATGATTTAACAACTATCCAAGGTGATGAGCCTGTGGGACAAAGACCATACCAACCTCTACCAGAAGCAAAAAAGAAAAGTAAACCAGCCCCCAGTGAATCAGCAGGTTATGGAATTCCACTGAAAGACGGAGATGAGAAAACAGATGAAGAAGCAGAGGGGCCATATTCAGATAATGAGATGTTAACACACAAAGGGCTTCGAAGATCGCAAAGCATGAAATCTGTGAAAACCACCAAAGGCCGCAAAGAGGTGCGGTACGGGTCACTAAAATACAAAGTGAAGAAACGACCACAAGTGTATTTTTAGTCATCTACACGTCAAATATCCC
modifications: CDS (1)..(765)
B3: 481 (nucleic acid, listed as Homo sapiens)
chain: GAAAGAGCCGAGTGGGCTCGAGGCCGACGCGACCATCGTTTGTCGACGCCGCTGCCACCGCCTGCCTGAGAGAAGTCGTCGCGGCCGACCCCGTCGCCTCCGCCGGCTACCATGTCCGCCCAGGCGCAGATGCGGGCCCTGCTGGACCAGCTCATGGGCACGGCTCGGGACGGAGACGAAACCAGACAGAGGGTCAAGTTTACAGATGACCGTGTCTGCAAGAGTCACCTTCTGGACTGCTGCCCCCATGACATCCTGGCTGGGACGCGCATGGATTTAGGAGAATGTACCAAAATCCACGACTTGGCCCTCCGAGCAGATTATGAGATTGCAAGTAAAGAAAGAGACCTGTTTTTTGAATTAGATGCAATGGATCACTTGGAGTCCTTTATTGCTGAATGTGATCGGAGAACTGAGCTCGCCAAGAAGCGGCTGGCAGAAACACAGGAGGAAATCAGTGCGGAAGTTTCTGCAAAGGCAGAAAAAGTACATGAGTTAAATGAAGAAATAGGAAAACTCCTTGCTAAAGCCGAACAGCTAGGGGCTGAAGGTAATGTGGATGAATCCCAGAAGATTCTTATGGAAGTGGAAAAAGTTCGTGCGAAGAAAAAAGAAGCTGAGGAAGAATACAGAAATTCCATGCCTGCATCCAGTTTTCAGCAGCAAAAGCTGCGTGTCTGCGAGGTCTGTTCAGCCTACCTTGGTCTCCATGACAATGACCGTCGCCTGGCAGACCACTTCGGTGGCAAGTTACACTTGGGGTTCATTCAGATCCGAGAGAAGCTTGATCAGTTGAGGAAAACTGTCGCTGAAAAGCAGGAGAAGAGAAATCAGGATCGCTTGAGGAGGAGAGAGGAGAGGGAACGGGAGGAGCGTCTGAGCAGGAGGTCGGGATCAAGAACCAGAGATCGCAGGAGGTCACGCTCCCGGGATCGGCGTCGGAGGCGGTCAAGATCTACCTCCCGAGAGCGACGGAAATTGTCCCGGTCCCGGTCCCGAGATAGACATCGGCGCCACCGCAGCCGTTCCCGGAGCCACAGCCGGGGACATCGTCGGGCTTCCCGGGACCGAAGTGCGAAATACAAGTTCTCCAGAGAGCGGGCATCCAGAGAGGAGTCCTGGGAGAGCGGGCGGAGCGAGCGAGGGCCCCCGGACTGGAGGCTTGAGAGCTCCAACGGGAAGATGGCTTCACGGAGGTCAGAAGAGAAGGAGGCCGGCGAGATCTGAACCCGTCTCCCGGGTGCTGTAAATAGTCTGATAAACGTTCACACAGTCTAAAATTACCCTTTATATTTGCTGAATACAACTCATCTTTTGTAGTTTAAAATTTCTATTGTTTTGGAGCTAGCTGTGAGTTTCTAGAAGTGTACAGAGTTGCTCCTGTGTTCCCGGGTCATGTTGAGTAGGAATAAATAAATCTGATGCTGCCTCCTGAGGCTGCGGGGGGTTT
modifications: CDS (112)..(1224)

How the values were obtained:
STAT6 [1] = assay: Screening compounds inhibiting promotion of STAT6 activity (STAT6 reporter activity); type: cell-based; conditions: 20 μM, mouse IL-4 1 ng/ml, 6 h; for inhibition of expression of the STAT6 reporter gene, control plasmid well: NIH3T3 cells with control plasmid pcDNA3.1 (+); for inhibition of expression of the STAT6 reporter gene (relative luciferase activity): NIH3T3 cells with plasmid for STAT6 activation-promoting protein of SEQ ID NO: 3, 17, 19, 218, 432 or 472, or nucleotide of SEQ ID NO: 64, FIGS. 1 to 7
Method: NIH3T3 cells were seeded on 10% FBS containing IMDM medium in a 96-well cell culture plate to a final cell density of 1×10^4 cells/100 μl/well, and cultured for 24 hours at 37° C. in the presence of 5% CO2. Then, 30 ng of the plasmid containing the nucleotide encoding the STAT6 activation-promoting protein of SEQ ID NO: 3, 17, 19, 218, 432 or 472, or the nucleotide of SEQ ID NO: 64, and 100 ng of the luciferase reporter plasmid having the STAT6 response sequence were cotransfected into the cells in a well using FuGENE 6. […] After 30 min of culture at 37° C., followed by 6 hours of culture with addition of mouse IL-4 to a final concentration of 1 ng/ml, the reporter activity was measured using PIKKA GENE LT2.0.

STAT6 [2] = assay: Screening of full-length cDNA clones for promotion of STAT6 activation (luciferase reporter N4×8-luc); type: cell-based; conditions: NIH3T3 cells cotransfected with N4×8-luc reporter and cDNA plasmid; 48 h culture, then mouse IL-4 0.5 ng/ml for 6 h
Procedure, shortened: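 NIH3T3 cells cotransfected with STAT6-responsive N4×8-luc reporter (100 ng) and full-length cDNA, cultured 48 h, then given mouse IL-4 at 0.5 ng/ml final for 6 h. Luciferase activity compared with reporter plus null-vector control.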

Molecule	inhibition of expression of the STAT6 reporter gene, control plasmid well (STAT6 [1])	inhibition of expression of the STAT6 reporter gene (relative luciferase activity) (STAT6 [1])	Activity = (luciferase activity of the gene of each SEQ ID NO:)/(luciferase activity of pME18S-FL3) (STAT6 [2])
N#CC(C#N)=Cc1ccc(O)c(O)c1 [AG18]	no expression was inhibited at all	inhibited	
N#C/C(=C/c1ccc(O)c(O)c1)C(=O)NCc1ccccc1 [AG490]	no expression was inhibited at all	inhibited	
B1			22.6
B2			3.3
B3			6.4
